US20100209486A1, “Method of enhancing CoenzymeQ10 levels in mammals” (priority 2009, published 2010)
Entries after “also recorded” stand apart in the source; their conditions may differ.

Columns and labels:
[1] = tested on: isolated guinea pig hearts; assay: Myocardial infarct size (TTC staining) in isolated ischemic/reperfused guinea pig hearts; assay type: in vivo; conditions: 5 mg/kg/day oral for 4 weeks; 30 min global ischemia, 120 min reperfusion; ratio infarct zone to risk zone; control 38±4.1%
Description: FIG. 2/A Effects of CoQ10 and CoQ9 on infarct size in isolated guinea pig hearts subjected to 30 min of ischemia followed by 120 min of reperfusion. The bars represent mean±SD of infarct size for control, CoQ10 and CoQ9 supplemented groups. *p<0.05 compared to the untreated age-matched ischemic/reperfused drug-free control (C) value. N=12 in each group.
Experimental studies were designed to determine if CoQ9 could protect guinea pig hearts from ischemia reperfusion injury. Myocardial ischemia reperfusion injury model is the most widely accepted experimental method for assessment of parameters related to cardio-protection. […] Cardioprotection was assessed by evaluating left ventricular function, ventricular arrhythmias, myocardial infarct size and cardiomyocyte apoptosis.
CoQ9 and CoQ10 treatment protects from cardiac infarction: Animal preparation, drug pretreatment and isolated working heart preparation were done as described in example 1. […] Using the NIH Image 1.61 image processing software, Infarct zones of each slice were traced and the respective areas were calculated in terms of pixels. The areas were measured by computerized planimetry software and these areas were multiplied by the weight of each slice, then the results summed up to obtain the weight of the risk zone. Infarct size was calculated as the ratio, in percent, of the infarct zone to the risk zone. […]

[2] = HPLC and MS determination of CoQ9 and CoQ10 in heart samples of supplemented guinea pigs; assay type: in vivo, guinea pig; conditions: 5 mg/kg/day CoQ9 oral for 4 weeks, heart tissue
Description: FIG. 3. HPLC chromatograms of a) Blank (mobile phase) b) CoQ9 standard solution c) CoQ10 standard solution and d) CoQ9 heart sample. The standards and sample solution were analyzed using an Agilent 1100 HPLC. The mobile phase was methanol-2-propanol-formic acid (45:55:0.05, v/v/v) containing methylamine at the concentration of 5 mmol/L. At a flow rate of 0.2 ml/min, 5 μl injections of the samples were done using the autosampler. The CoQ9 peak eluted at 2.39 minutes and the CoQ10 eluted at 2.86 minutes. However, the CoQ9 heart sample peak eluted at […], which is the same as CoQ10, thus indicating the presence of CoQ10 rather than CoQ9 in the sample.
FIG. 4. Mass Spectrometry (MS). (a) CoQ10 standard, b) CoQ9 standard, c) CoQ10 heart sample) Methylamine was used in the mobile phase to obtain the methyl ammonium adduct molecules of CoQ9 and CoQ10. The sensitivity of the adduct ions [M+CH3NH3]^+ was much higher than that of the protonated ions [M+H]^+ [7]. The MS spectra of both [M+CH3NH3][…] at m/z 826.5 for CoQ9 and m/z 894.6 for CoQ10 were observed. However, the CoQ9 heart sample indicated a mass peak at m/z 894.6, which matches the peak for CoQ10 and not CoQ9. Therefore, there was evidence of CoQ10 in the CoQ9 heart sample from the mass spec. data. This confirmed the hypothesis of bio-conversion of CoQ9 to CoQ10.
However, the retention time of CoQ9 heart sample indicated a retention time of 2.86 minutes and not 2.39 minutes (FIG. 3d). The retention time of the CoQ9 heart sample matched with that of CoQ10 rather than CoQ9. The qualitative analysis was done by identifying the compounds by their retention times. It was obvious that at this point CoQ9 was probably bio-converted to CoQ10. […]
Preparation of CoQ9 and CoQ10 heart samples: Animal preparation, drug pretreatment and isolated working heart preparation were done as described in example 1. […] The samples were analyzed immediately after preparation, and the remainder of the standard solutions was stored at 5° C. for future analysis. […]

Structure (SMILES)	infarct size [1] [%]	CoQ9 detected in the heart after CoQ9 supplementation [2]	bioconversion of CoQ9 into CoQ10 [2]	CoQ10 content in the heart after CoQ9 supplementation ([2]; control chromatogram subtracted)
COC1=C(OC)C(=O)C(C/C=C(\C)CC/C=C(\C)CC/C=C(\C)CC/C=C(\C)CC/C=C(\C)CC/C=C(\C)CC/C=C(\C)CC/C=C(\C)CCC=C(C)C)=C(C)C1=O [CoQ9, Coenzyme Q9]	16.3±3.2	no CoQ9 could be detected in the heart; also recorded: very small or no amount of CoQ9	a substantial portion of CoQ9 had been bio-converted into CoQ10; also recorded: complete bioconversion of CoQ9 into CoQ10	appreciable amount of CoQ10 in the heart tissue; also recorded: significantly high enrichment in the CoQ10 content
COC1=C(OC)C(=O)C(C/C=C(\C)CC/C=C(\C)CC/C=C(\C)CC/C=C(\C)CC/C=C(\C)CC/C=C(\C)CC/C=C(\C)CC/C=C(\C)CC/C=C(\C)CCC=C(C)C)=C(C)C1=O [CoQ10, Coenzyme Q10, reference compound]	21.1±5			
